Laboratory results: the supplement of paper PMC10307832

Legend:
Test in all cases: relative viability (nuclei count vs DMSO), 5 days (fraction); higher = more cells survive
NCI-H647 = tested on: NCI-H647
In short: (§1)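 Nuclei were stained with Hoechst during a one-step fixation (final 0.05% Triton X-100, 1% formaldehyde, 1 ug/ml Hoechst) carried out 5 days after dosing, then counted on 4× images. The cells, lung cancer lines in 1536-well plates, had been dosed by pin tool the day after seeding with one drug alone or a fixed anchor-drug dose plus five library-drug doses (not always all listed) in √10 steps. Relative viability is the nuclei count in treated wells divided by that in vehicle wells, and each value is the median of duplicate plates.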

EKVX = tested on: EKVX
In short: as §1

NCI-H1734 = tested on: NCI-H1734
In short: as §1

A-427 = tested on: A-427
In short: as §1

LU99A = tested on: LU99A
In short: as §1

EPLC-272H = tested on: EPLC-272H
In short: as §1

ChaGo-K-1 = tested on: ChaGo-K-1
In short: as §1

LK-2 = tested on: LK-2
In short: as §1

NCI-H460 = tested on: NCI-H460
In short: as §1

HCC-44 = tested on: HCC-44
In short: as §1

NCI-H2405 = tested on: NCI-H2405
In short: as §1

NCI-H1993 = tested on: NCI-H1993
In short: as §1

HARA = tested on: HARA
In short: as §1

NCI-H1650 = tested on: NCI-H1650
In short: as §1

NCI-H1755 = tested on: NCI-H1755
In short: as §1

SW 900 = tested on: SW 900
In short: as §1

COR-L 105 = tested on: COR-L 105
In short: as §1

EMC-BAC-2 = tested on: EMC-BAC-2
In short: as §1

NCI-H358 = tested on: NCI-H358
In short: as §1

RERF-LC-KJ = tested on: RERF-LC-KJ
In short: as §1

NCI-H522 = tested on: NCI-H522
In short: as §1

NCI-H1792 = tested on: NCI-H1792
In short: as §1

Cc1csc(=NC2CCCCC2)n1/N=C/c1ccc(O)c(O)c1O [MIM1] + CC(=O)c1c(C)c2cnc(Nc3ccc(N4CCNCC4)cn3)nc2n(C2CCCC2)c1=O [Palbociclib] (partner 0.5 µM)
relative viability (NCI-H647; first compound 0.2 µM): 0.395
relative viability (NCI-H647; first compound 0.6325 µM): 0.404
relative viability (NCI-H647; first compound 2 µM): 0.381
relative viability (NCI-H647; first compound 6.325 µM): 0.338
relative viability (NCI-H647; first compound 20 µM): 0.0937
relative viability (EKVX; first compound 0.2 µM): 0.332
relative viability (EKVX; first compound 0.6325 µM): 0.367
relative viability (EKVX; first compound 2 µM): 0.339
relative viability (EKVX; first compound 6.325 µM): 0.312
relative viability (EKVX; first compound 20 µM): 0.286
relative viability (NCI-H1734; first compound 0.2 µM): 0.32
relative viability (NCI-H1734; first compound 0.6325 µM): 0.361
relative viability (NCI-H1734; first compound 2 µM): 0.34
relative viability (NCI-H1734; first compound 6.325 µM): 0.322
relative viability (NCI-H1734; first compound 20 µM): 0.193
relative viability (A-427; first compound 0.2 µM): 0.523
relative viability (A-427; first compound 0.6325 µM): 0.471
relative viability (A-427; first compound 2 µM): 0.545
relative viability (A-427; first compound 6.325 µM): 0.473
relative viability (A-427; first compound 20 µM): 0.337
relative viability (LU99A; first compound 0.2 µM): 0.404
relative viability (LU99A; first compound 0.6325 µM): 0.405
relative viability (LU99A; first compound 2 µM): 0.38
relative viability (LU99A; first compound 6.325 µM): 0.355
relative viability (LU99A; first compound 20 µM): 0.159
relative viability (EPLC-272H; first compound 0.2 µM): 0.328
relative viability (EPLC-272H; first compound 0.6325 µM): 0.332
relative viability (EPLC-272H; first compound 2 µM): 0.302
relative viability (EPLC-272H; first compound 6.325 µM): 0.279
relative viability (EPLC-272H; first compound 20 µM): 0.149
relative viability (ChaGo-K-1; first compound 0.2 µM): 0.951
relative viability (ChaGo-K-1; first compound 0.6325 µM): 0.926
relative viability (ChaGo-K-1; first compound 2 µM): 0.961
relative viability (ChaGo-K-1; first compound 6.325 µM): 0.7
relative viability (ChaGo-K-1; first compound 20 µM): 0.163
relative viability (LK-2; first compound 0.2 µM): 0.774
relative viability (LK-2; first compound 0.6325 µM): 0.495
relative viability (LK-2; first compound 2 µM): 0.468
relative viability (LK-2; first compound 6.325 µM): 0.725
relative viability (LK-2; first compound 20 µM): 0.223
relative viability (NCI-H460; first compound 0.2 µM): 0.219
relative viability (NCI-H460; first compound 0.6325 µM): 0.169
relative viability (NCI-H460; first compound 2 µM): 0.106
relative viability (NCI-H460; first compound 6.325 µM): 0.0475
relative viability (NCI-H460; first compound 20 µM): 0.027
relative viability (HCC-44; first compound 0.2 µM): 0.902
relative viability (HCC-44; first compound 0.6325 µM): 0.981
relative viability (HCC-44; first compound 2 µM): 0.94
relative viability (HCC-44; first compound 6.325 µM): 0.608
relative viability (HCC-44; first compound 20 µM): 0.578
relative viability (NCI-H2405; first compound 0.2 µM): 0.512
relative viability (NCI-H2405; first compound 0.6325 µM): 0.549
relative viability (NCI-H2405; first compound 2 µM): 0.605
relative viability (NCI-H2405; first compound 6.325 µM): 0.383
relative viability (NCI-H2405; first compound 20 µM): 0.351
relative viability (NCI-H1993; first compound 0.2 µM): 0.624
relative viability (NCI-H1993; first compound 0.6325 µM): 0.706
relative viability (NCI-H1993; first compound 2 µM): 0.659
relative viability (NCI-H1993; first compound 6.325 µM): 0.514
relative viability (NCI-H1993; first compound 20 µM): 0.349
relative viability (HARA; first compound 0.2 µM): 0.253
relative viability (HARA; first compound 0.6325 µM): 0.302
relative viability (HARA; first compound 2 µM): 0.281
relative viability (HARA; first compound 6.325 µM): 0.251
relative viability (HARA; first compound 20 µM): 0.169
relative viability (NCI-H1650; first compound 0.2 µM): 0.446
relative viability (NCI-H1650; first compound 0.6325 µM): 0.316
relative viability (NCI-H1650; first compound 2 µM): 0.256
relative viability (NCI-H1650; first compound 6.325 µM): 0.137
relative viability (NCI-H1650; first compound 20 µM): 0.136
relative viability (NCI-H1755; first compound 0.2 µM): 0.432
relative viability (NCI-H1755; first compound 0.6325 µM): 0.453
relative viability (NCI-H1755; first compound 2 µM): 0.431
relative viability (NCI-H1755; first compound 6.325 µM): 0.419
relative viability (NCI-H1755; first compound 20 µM): 0.306
relative viability (SW 900; first compound 0.2 µM): 0.632
relative viability (SW 900; first compound 0.6325 µM): 0.581
relative viability (SW 900; first compound 2 µM): 0.507
relative viability (SW 900; first compound 6.325 µM): 0.211
relative viability (SW 900; first compound 20 µM): 0.171
relative viability (COR-L 105; first compound 0.2 µM): 0.472
relative viability (COR-L 105; first compound 0.6325 µM): 0.435
relative viability (COR-L 105; first compound 2 µM): 0.396
relative viability (COR-L 105; first compound 6.325 µM): 0.396
relative viability (COR-L 105; first compound 20 µM): 0.323
relative viability (EMC-BAC-2; first compound 0.2 µM): 0.543
relative viability (EMC-BAC-2; first compound 0.6325 µM): 0.542
relative viability (EMC-BAC-2; first compound 2 µM): 0.476
relative viability (EMC-BAC-2; first compound 6.325 µM): 0.492
relative viability (EMC-BAC-2; first compound 20 µM): 0.244
relative viability (NCI-H358; first compound 0.2 µM): 0.145
relative viability (NCI-H358; first compound 0.6325 µM): 0.153
relative viability (NCI-H358; first compound 2 µM): 0.122
relative viability (NCI-H358; first compound 6.325 µM): 0.118
relative viability (NCI-H358; first compound 20 µM): 0.128
relative viability (RERF-LC-KJ; first compound 0.2 µM): 0.952
relative viability (RERF-LC-KJ; first compound 0.6325 µM): 0.995
relative viability (RERF-LC-KJ; first compound 2 µM): 0.686
relative viability (RERF-LC-KJ; first compound 6.325 µM): 0.613
relative viability (RERF-LC-KJ; first compound 20 µM): 0.227
relative viability (NCI-H522; first compound 0.2 µM): 0.819
relative viability (NCI-H522; first compound 0.6325 µM): 0.921
relative viability (NCI-H522; first compound 2 µM): 0.932
relative viability (NCI-H522; first compound 6.325 µM): 1.13
relative viability (NCI-H522; first compound 20 µM): 0.61
relative viability (NCI-H1792; first compound 0.2 µM): 0.659
relative viability (NCI-H1792; first compound 0.6325 µM): 0.622
relative viability (NCI-H1792; first compound 2 µM): 0.644
relative viability (NCI-H1792; first compound 6.325 µM): 0.475
relative viability (NCI-H1792; first compound 20 µM): 0.56
